This assay has as its target recombinant DYRK1A kinase (Homo sapiens, UniProt Q13627). The experiment in a line: DYRK1A kinase assay (Ser/Thr 18 peptide Z-lyte FRET). Type of assay: biochemical. To be noted: DYRK1A kinase activity; 15 μM ATP, 4 μM Ser/Thr peptide 18, one hour at room temperature. The essentials: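 Recombinant DYRK1A at 0.25 μg/mL was incubated 1 h at room temperature with 15 μM ATP, 4 μM Ser/Thr 18 peptide and compound, in duplicate, 11-point series from 10 μM. Phosphorylation was read by Z-lyte FRET after 1 h protease development, as the coumarin/fluorescein emission ratio converted to % phosphorylation. IC50 by non-linear regression.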

Among the data in patent US20230192686A1, “1H-PYRROLO[2,3-B]PYRIDINES AND PREPARATION AND USES THEREOF” (BioSplice Therapeutics, Inc., priority 2021, published 2023) are EC50 values, retold here.

Take `O=C(Nc1cccnc1)c1cnn2ccc(-c3c[nH]c4nc(CO)ccc34)cc12` [Compound 1809, 5-(6-(Hydroxymethyl)-1H-pyrrolo[2,3-b]pyridin-3-yl)-N-(pyridin-3-yl) pyrazolo[1,5-a]pyridine-3-carboxamide]: the EC50 (commonly the concentration needed to bring the measured effect to its halfway point) amounted to 3 nM.

Consider `CN1CCC(C(=O)Nc2ccc3c(-c4ccc5nn(C)cc5c4)c[nH]c3n2)CC1` [Compound 1831, 1-Methyl-N-(3-(2-methyl-2H-indazol-5-yl)-1H-pyrrolo[2,3-b]pyridin-6-yl)piperidine-4-carboxamide], for which the EC50 stood at 1 nM.

As to `Cc1nc2c(F)cc(-c3c[nH]c4nc(NC(=O)C5CCN(C)CC5)ccc34)cc2n1C(C)C` [Compound 1837, N-(3-(4-Fluoro-1-isopropyl-2-methyl-1H-benzo[d]imidazol-6-yl)-1H-pyrrolo[2,3-b]pyridin-6-yl)-1-methylpiperidine-4-carboxamide], the EC50 turned out to be 1 nM.

On to `CN1CCC(C(=O)Nc2ccc3c(-c4ccn5ncc(-c6cccnc6)c5c4)c[nH]c3n2)CC1` [Compound 1847, 1-Methyl-N-(3-(3-(pyridin-3-yl)pyrazolo[1,5-a]pyridin-5-yl)-1H-pyrrolo[2,3-b]pyridin-6-yl)piperidine-4-carboxamide], for which the concentration for a half-maximal effect (EC50) was 1 nM.

As for `CN1CCC(C(=O)Nc2ccc3c(-c4ccnc(N5CCN(C)CC5)c4)c[nH]c3n2)CC1` [Compound 1855, 1-Methyl-N-(3-(2-(4-methylpiperazin-1-yl)pyridin-4-yl)-1H-pyrrolo [2,3-b]pyridin-6-yl)piperidine-4-carboxamide], the EC50 stood at 30 nM.

On to `CN1CCC(C(=O)Nc2ccc3c(-c4ccc5c(c4)C(C)(C)CNC5=O)c[nH]c3n2)CC1` [Compound 1863, N-(3-(4,4-Dimethyl-1-oxo-1,2,3,4-tetrahydroisoquinolin-6-yl)-1H-pyrrolo[2,3-b]pyridin-6-yl)-1-methylpiperidine-4-carboxamide], for which the EC50 worked out at 5 nM.

Take `CN1CCC(C(=O)Nc2ccc3c(-c4ccc5ncccc5c4)c[nH]c3n2)CC1` [Compound 1866, 1-Methyl-N-(3-(quinolin-6-yl)-1H-pyrrolo[2,3-b]pyridin-6-yl) piperidine-4-carboxamide]: the 50% effective concentration (EC50) turned out to be 1 nM.

On to `CN1CCN(c2cc(-c3c[nH]c4nc(NC(=O)c5ccncc5)ccc34)ccn2)CC1` [Compound 1897, N-(3-(2-(4-Methylpiperazin-1-yl)pyridin-4-yl)-1H-pyrrolo[2,3-b]pyridin-6-yl)isonicotinamide], for which the concentration giving a half-maximal response (EC50) came out at 51 nM.

On to `O=C(Nc1ccc2c(-c3ccc4c(c3)C3(CCNCC3)CC4=O)c[nH]c2n1)c1ccncc1` [Compound 1898, N-(3-(3-oxo-2,3-dihydrospiro[indene-1,4′-piperidin]-6-yl)-1H-pyrrolo [2,3-b]pyridin-6-yl)isonicotinamide], for which the EC50 was 20 nM.

Regarding `CN1CCC2(CC1)CC(=O)c1ccc(-c3c[nH]c4nc(NC(=O)c5ccncc5)ccc34)cc12` [Compound 1899, N-(3-(1′-methyl-3-oxo-2,3-dihydrospiro[indene-1,4′-piperidin]-6-yl)-1H-pyrrolo[2,3-b]pyridin-6-yl)isonicotinamide], the EC50 is 14 nM.

As for `O=C(Nc1ccc2c(-c3ccc4ncccc4c3)c[nH]c2n1)c1ccncc1` [Compound 1908, N-(3-(Quinolin-6-yl)-1H-pyrrolo[2,3-b]pyridin-6-yl)isonicotinamide], the half-maximal effective concentration (EC50) amounted to 1 nM.

Turning to `CN1CCC(Oc2ncnc3ccc(-c4c[nH]c5nc(NC(=O)c6ccncc6)ccc45)cc23)CC1` [Compound 1913, N-(3-(4-((1-Methylpiperidin-4-yl)oxy)quinazolin-6-yl)-1H-pyrrolo [2,3-b]pyridin-6-yl)isonicotinamide], the EC50 was 5 nM.

Regarding `CN1CCN(c2cccc(Nc3ccc4c(-c5ccn6ncc(-c7cnn(C)c7)c6c5)c[nH]c4n3)c2)CC1` [Compound 1930, 3-(3-(1-Methyl-1H-pyrazol-4-yl)pyrazolo[1,5-a]pyridin-5-yl)-N-(3-(4-methylpiperazin-1-yl)phenyl)-1H-pyrrolo[2,3-b]pyridin-6-amine], the EC50 came out at 4 nM.

As for `CN1CCN(c2cccc(Nc3ccc4c(-c5ccc6c(c5)CCCO6)c[nH]c4n3)c2)CC1` [Compound 1945, 3-(Chroman-6-yl)-N-(3-(4-methylpiperazin-1-yl)phenyl)-1H-pyrrolo [2,3-]pyridin-6-amine], the 50% effective concentration (EC50) stood at 125 nM.

Consider `CN1CCN(c2cccc(Nc3ccc4c(-c5ccc6ncccc6c5)c[nH]c4n3)c2)CC1` [Compound 1950, N-(3-(4-Methylpiperazin-1-yl)phenyl)-3-(quinolin-6-yl)-1H-pyrrolo [2,3-b]pyridin-6-amine], for which the concentration for a half-maximal effect (EC50) is 38 nM.

As for `Cc1nc2c(F)cc(-c3c[nH]c4nc(-c5cnn(C)c5)ccc34)cc2n1C(C)C` [Compound 1963, 4-Fluoro-1-isopropyl-2-methyl-6-(6-(1-methyl-1H-pyrazol-4-yl)-1H-pyrrolo[2,3-b]pyridin-3-yl)-1H-benzo[d]imidazole], the EC50 amounted to 45 nM.

With `CN1CCC(NC(=O)c2cnn3ccc(-c4c[nH]c5nc(-c6cnn(C)c6)ccc45)cc23)CC1` [Compound 1976, 5-(6-(1-Methyl-1H-pyrazol-4-yl)-1H-pyrrolo[2,3-b]pyridin-3-yl)-N-(1-methylpiperidin-4-yl)pyrazolo[1,5-a]pyridine-3-carboxamide], the concentration for a half-maximal effect (EC50) turned out to be 10 nM.

Take `CN1C2CCC1CN(C(=O)c1cnc3[nH]cc(-c4cc5ccncc5s4)c3c1)C2` [Compound 2041, (8-Methyl-3,8-diazabicyclo[3.2.1]octan-3-yl)(3-(thieno[2,3-c]pyridin-2-yl)-1H-pyrrolo[2,3-b]pyridin-5-yl)methanone]: the EC50 is 115 nM.

With `c1cn2cc(-c3c[nH]c4nc(C5CCC5)ccc34)ncc2n1` [Compound 2042, 6-(6-Cyclobutyl-1H-pyrrolo[2,3-b]pyridin-3-yl)imidazo[1,2-a]pyrazine], the concentration giving a half-maximal response (EC50) came to 345 nM.

For the compound `Cc1nc2c(F)cc(-c3c[nH]c4ncc(C(=O)O)cc34)cc2n1C(C)C` [Compound 2043, 3-(4-Fluoro-1-isopropyl-2-methyl-1H-benzo[d]imidazol-6-yl)-1H-pyrrolo[2,3-b]pyridine-5-carboxylic acid], the EC50 was 36 nM.

For `Cc1nc2c(F)cc(-c3c[nH]c4ncc(C(=O)N5CC6CCC(C5)N6C)cc34)cc2n1C(C)C` [Compound 2044, (3-(4-Fluoro-1-isopropyl-2-methyl-1H-benzo[d]imidazol-6-yl)-1H-pyrrolo[2,3-b]pyridin-5-yl)(8-methyl-3,8-diazabicyclo[3.2.1]octan-3-yl)methanone], the concentration giving a half-maximal response (EC50) is 3 nM.

In the case of `Cc1nc2c(F)cc(-c3c[nH]c4nc(C(C)C)ccc34)cc2n1C(C)C` [Compound 2045, 4-Fluoro-1-isopropyl-6-(6-isopropyl-1H-pyrrolo[2,3-b]pyridin-3-yl)-2-methyl-1H-benzo[d]imidazole], the half-maximal effective concentration (EC50) was 36 nM.

`COc1cnc2[nH]cc(-c3ccn4ncc(C(=O)N5CCN(C)CC5)c4c3)c2c1` [Compound 2047, (5-(5-Methoxy-1H-pyrrolo[2,3-b]pyridin-3-yl)pyrazolo[1,5-a]pyridin-3-yl)(4-methylpiperazin-1-yl)methanone]: the concentration for a half-maximal effect (EC50) amounted to 32 nM.

In the case of `CN1CCC(NC(=O)c2ccc3c(-c4ccc5ncnn5c4)c[nH]c3n2)CC1` [Compound 2048, 3-([1,2,4]Triazolo[1,5-a]pyridin-6-yl)-N-(1-methylpiperidin-4-yl)-1H-pyrrolo[2,3-b]pyridine-6-carboxamide], the 50% effective concentration (EC50) came out at 2540 nM.
